Zone of inhibition and inhibition halo diameter data for four molecules are collected here from US20070160725A1, “Use of extracts and compounds of allium-genus plants as preservatives in the food and agri-food industries” (MOUSALA, S., L., priority 2004, published 2007).

What all share (test): agar diffusion, inhibition halo
Holding throughout (type): cell-based

In assay [1] the test system is Penicillium italicum CECT 2294. As to conditions: for zone of inhibition at 1000 µg/mL / zone of inhibition at 2000 µg/mL / zone of inhibition at 4000 µg/mL: Penicillium italicum. The method, then:
(§1) In order to evaluate the antimicrobial activity the agar diffusion technique with cellulose discs of 6 mm in diameter impregnated with the different active ingredient testing doses was used.
(§2) Antifungal capacity was assessed against suspensions of […], harvested from pure cultures of the selected molds and against suspensions of 10^7 cells/ml for the case of yeasts. The culture medium used was the 2% Sabouraud-glucose medium (Merck).
(§3) After incubating the culture dishes inoculated with the different organisms at the corresponding temperatures, the microbial inhibition halos that appeared were measured, and said measurement includes the 6 mm diameter of the cellulose discs.

In assay [2] the test system is Geotrichum candidum CECT 1902. The method, then: as §1, §2, §3
Assay [3] deals with Trichoderma aureoviride CECT 20102. The method, then:
as §1, §2, §3

The mark [4] stands for this setting: CECT2294, 1000 ppm of commercial product, read-out: inhibition halo diameter.
Where [5] appears, read: CECT2294, 2000 ppm of commercial product, read-out: inhibition halo diameter.
Where [6] appears, read: CECT2294, 4000 ppm of commercial product, read-out: inhibition halo diameter.
[7] abbreviates: CECT2294, read-out: inhibition halo diameter.

Read-outs that look alike come from different tables or passages of the source.

Consider `C=CCOC(Cn1ccnc1)c1ccc(Cl)cc1Cl` (stereo not drawn) [Imazalil], for which, in assay [1] (setting [4]), the zone of inhibition at 1000 µg/mL amounted to 46 mm. Also, the zone of inhibition at 2000 µg/mL in assay [1] (setting [5]) was 47 mm. In addition, the zone of inhibition at 4000 µg/mL in assay [1] (setting [6]) turned out to be 50 mm. For the same molecule, the inhibition halo diameter in assay [2] (1000 ppm of commercial product) was determined as 20 mm; in assay [2] (2000 ppm of commercial product), 23 mm; in assay [2] (4000 ppm of commercial product), 26 mm; in assay [3] (1000 ppm of commercial product), 20 mm; in assay [3] (2000 ppm of commercial product), 25 mm; in assay [3] (4000 ppm of commercial product) it was 31 mm.

As to `c1ccc2[nH]c(-c3cscn3)nc2c1` [Thiabendazole], the zone of inhibition at 1000 µg/mL in assay [1] (setting [4]) was greater than 40 mm. Further, the zone of inhibition at 2000 µg/mL in assay [1] (setting [5]) was greater than 40 mm. For the same molecule, in assay [1] (setting [6]), the zone of inhibition at 4000 µg/mL is greater than 40 mm. The inhibition halo diameter in assay [2] (1000 ppm of commercial product) was found to be 0 mm; in assay [2] (2000 ppm of commercial product) it was 0 mm; in assay [2] (4000 ppm of commercial product), 0 mm; in assay [3] (1000 ppm of commercial product) it was 24 mm; in assay [3] (2000 ppm of commercial product) it was 26 mm; in assay [3] (4000 ppm of commercial product) it was 26 mm.

Take `CCCN(CCOc1c(Cl)cc(Cl)cc1Cl)C(=O)n1ccnc1` [Prochloraz]: in assay [1] (setting [7]), the zone of inhibition at 1000 µg/mL came out at 31 mm. In addition, in assay [1] (setting [7]), the zone of inhibition at 2000 µg/mL came to 35 mm. For the same molecule, the zone of inhibition at 4000 µg/mL in assay [1] (setting [7]) turned out to be 35 mm. In addition, the inhibition halo diameter in assay [2] (1000 ppm of commercial product) was determined as 0 mm; in assay [2] (2000 ppm of commercial product) it was 0 mm; in assay [2] (4000 ppm of commercial product), 0 mm; in assay [3] (1000 ppm of commercial product) it was 8 mm; in assay [3] (2000 ppm of commercial product) it was 11 mm; in assay [3] (4000 ppm of commercial product), 12 mm.

Regarding Guazatine, the inhibition halo diameter is on record as 10 mm in assay [1] (1000 ppm of commercial product); 12 mm in assay [1] (2000 ppm of commercial product); 15 mm in assay [1] (4000 ppm of commercial product); 27 mm in assay [2] (1000 ppm of commercial product); 30 mm in assay [2] (2000 ppm of commercial product); 35 mm in assay [2] (4000 ppm of commercial product). Further, the inhibition halo diameter in assay [3] (1000 ppm of commercial product) turned out to be 25 mm; in assay [3] (2000 ppm of commercial product), 30 mm; in assay [3] (4000 ppm of commercial product), 35 mm.
